Earlier results in US20150307774A1, “Chelates, chelating agents, conjugates derived thereof and their use” (priority 2012, published 2015).

Conditions: at this pH (7.4), calculated from literature data

In the case of `O=C(O)CN(CCN(CC(=O)O)CC(=O)O)CC(=O)O` [EDTA], the conditional stability constant is listed as 14.53 Log units.
